Measurements reported in patent publication US10206394B2, “Herbicidal compounds” (Syngenta Participations AG, priority 2014, dated 2019).
Like-named read-outs stand apart in the source and are kept apart here.

Experiments:
Experiment in all cases: Glasshouse assay for herbicidal activity (pre- and post-emergence), percentage phytotoxicity
Assay type in all cases: in vivo
[1] = system: Alopecurus myosuroides (ALOMY); details: Alopecurus myosuroides
Summary of the method: (§1)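 Visually rated damage, 0–100%. PRE spray 1 d after sowing, scored 20 DAA; POST spray ~12 d, scored 15 DAA. Glasshouse at 65% humidity, 16 h day.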

Avena fatua (AVEFA) = details: Avena fatua
Summary of the method: as §1

[2] = system: Echinochloa crus-galli (ECHCG); details: Echinochloa crus-galli
Summary of the method: as §1

Lolium perenne (LOLPE) = details: Lolium perenne
Summary of the method: as §1

[3] = post-emergence, 360 h, POST-emergence, rate 250 g/ha, visual score 15 DAA (100%=total damage, 0%=no damage), read-out: Post-emergence herbicidal activity (percentage phytotoxicity) ALOMY POST
[4] = pre-emergence, 480 h, PRE-emergence, rate 250 g/ha, visual score 20 DAA (100%=total damage, 0%=no damage), read-out: Pre-emergence herbicidal activity (percentage phytotoxicity) ALOMY PRE
[5] = post-emergence, 360 h, POST-emergence, rate 250 g/ha, visual score 15 DAA (100%=total damage, 0%=no damage), read-out: Post-emergence herbicidal activity (percentage phytotoxicity) AVEFA POST
[6] = pre-emergence, 480 h, PRE-emergence, rate 250 g/ha, visual score 20 DAA (100%=total damage, 0%=no damage), read-out: Pre-emergence herbicidal activity (percentage phytotoxicity) AVEFA PRE
[7] = post-emergence, 360 h, POST-emergence, rate 250 g/ha, visual score 15 DAA (100%=total damage, 0%=no damage), read-out: Post-emergence herbicidal activity (percentage phytotoxicity) ECHCG POST
[8] = pre-emergence, 480 h, PRE-emergence, rate 250 g/ha, visual score 20 DAA (100%=total damage, 0%=no damage), read-out: Pre-emergence herbicidal activity (percentage phytotoxicity) ECHCG PRE
[9] = post-emergence, 360 h, POST-emergence, rate 250 g/ha, visual score 15 DAA (100%=total damage, 0%=no damage), read-out: Post-emergence herbicidal activity (percentage phytotoxicity) LOLPE POST
[10] = pre-emergence, 480 h, PRE-emergence, rate 250 g/ha, visual score 20 DAA (100%=total damage, 0%=no damage), read-out: Pre-emergence herbicidal activity (percentage phytotoxicity) LOLPE PRE

SMILES	pest or weed control at 250 g/ha [1, 3]	pest or weed control at 250 g/ha [1, 4]	pest or weed control at 250 g/ha (Avena fatua (AVEFA); [5])	pest or weed control at 250 g/ha (Avena fatua (AVEFA); [6])	pest or weed control at 250 g/ha [2, 7]	pest or weed control at 250 g/ha [2, 8]	pest or weed control at 250 g/ha (Lolium perenne (LOLPE); [9])	pest or weed control at 250 g/ha (Lolium perenne (LOLPE); [10])	further results
Cc1cc(-c2ncc(F)cn2)cc(C)c1C1C(=O)CC(CC(=O)N(C)C(C)(C)C)C1=O (stereo not drawn) [Compound B331]	90%	100%	100%	90%	100%	100%	100%	100%	
Cc1cc(C)c(C2C(=O)CC(CC(=O)NCc3ccccc3C)C2=O)c(C)c1 (stereo not drawn) [Compound B12]									pest or weed control at 250 g/ha ([1]; post-emergence, 360 h, 250 g/ha, post-emergence, 15 DAA, visual assessment (100%=total damage, 0%=no damage), read-out: Post-emergence herbicidal activity (percentage phytotoxicity) ALOMY POST): 60%; pest or weed control at 250 g/ha ([1]; pre-emergence, 480 h, 250 g/ha, pre-emergence, 20 DAA, visual assessment (100%=total damage, 0%=no damage), read-out: Pre-emergence herbicidal activity (percentage phytotoxicity) ALOMY PRE): 70%; pest or weed control at 250 g/ha (Avena fatua (AVEFA); post-emergence, 360 h, 250 g/ha, post-emergence, 15 DAA, visual assessment (100%=total damage, 0%=no damage), read-out: Post-emergence herbicidal activity (percentage phytotoxicity) AVEFA POST): 60%; pest or weed control at 250 g/ha (Avena fatua (AVEFA); pre-emergence, 480 h, 250 g/ha, pre-emergence, 20 DAA, visual assessment (100%=total damage, 0%=no damage), read-out: Pre-emergence herbicidal activity (percentage phytotoxicity) AVEFA PRE): 30%; pest or weed control at 250 g/ha ([2]; post-emergence, 360 h, 250 g/ha, post-emergence, 15 DAA, visual assessment (100%=total damage, 0%=no damage), read-out: Post-emergence herbicidal activity (percentage phytotoxicity) ECHCG POST): 90%; pest or weed control at 250 g/ha ([2]; pre-emergence, 480 h, 250 g/ha, pre-emergence, 20 DAA, visual assessment (100%=total damage, 0%=no damage), read-out: Pre-emergence herbicidal activity (percentage phytotoxicity) ECHCG PRE): 100%; pest or weed control at 250 g/ha (Lolium perenne (LOLPE); post-emergence, 360 h, 250 g/ha, post-emergence, 15 DAA, visual assessment (100%=total damage, 0%=no damage), read-out: Post-emergence herbicidal activity (percentage phytotoxicity) LOLPE POST): 90%; pest or weed control at 250 g/ha (Lolium perenne (LOLPE); pre-emergence, 480 h, 250 g/ha, pre-emergence, 20 DAA, visual assessment (100%=total damage, 0%=no damage), read-out: Pre-emergence herbicidal activity (percentage phytotoxicity) LOLPE PRE): 90%
CCc1cc(-n2cc(Cl)cn2)cc(C)c1C1C(=O)CC(CC(=O)NCc2cccc(F)c2)C1=O (stereo not drawn) [Compound B232]	100%	90%	100%	70%	100%	90%	100%	90%	
Cc1cc(-c2ncc(F)cc2F)cc(C)c1C1C(=O)CC(CC(=O)NCc2ccc(C#N)cc2)C1=O (stereo not drawn) [Compound B199]	100%	80%	100%	60%	100%	50%	90%	70%	
COCC(C)(C)NC(=O)CC1CC(=O)C(c2c(C)cc(-c3ccc(Cl)cn3)cc2C)C1=O (stereo not drawn) [Compound B364]									pest or weed control at 250 g/ha ([1]; post-emergence, 360 h, Rate 250 g/ha, post-emergence, visual assessment 15 DAA, 100%=total damage, 0%=no damage, read-out: Post-emergence herbicidal activity (percentage phytotoxicity) ALOMY POST): 100%; pest or weed control at 250 g/ha ([1]; pre-emergence, 480 h, Rate 250 g/ha, pre-emergence, visual assessment 20 DAA, 100%=total damage, 0%=no damage, read-out: Pre-emergence herbicidal activity (percentage phytotoxicity) ALOMY PRE): 100%; pest or weed control at 250 g/ha (Avena fatua (AVEFA); post-emergence, 360 h, Rate 250 g/ha, post-emergence, visual assessment 15 DAA, 100%=total damage, 0%=no damage, read-out: Post-emergence herbicidal activity (percentage phytotoxicity) AVEFA POST): 90%; pest or weed control at 250 g/ha (Avena fatua (AVEFA); pre-emergence, 480 h, Rate 250 g/ha, pre-emergence, visual assessment 20 DAA, 100%=total damage, 0%=no damage, read-out: Pre-emergence herbicidal activity (percentage phytotoxicity) AVEFA PRE): 80%; pest or weed control at 250 g/ha ([2]; post-emergence, 360 h, Rate 250 g/ha, post-emergence, visual assessment 15 DAA, 100%=total damage, 0%=no damage, read-out: Post-emergence herbicidal activity (percentage phytotoxicity) ECHCG POST): 90%; pest or weed control at 250 g/ha ([2]; pre-emergence, 480 h, Rate 250 g/ha, pre-emergence, visual assessment 20 DAA, 100%=total damage, 0%=no damage, read-out: Pre-emergence herbicidal activity (percentage phytotoxicity) ECHCG PRE): 90%; pest or weed control at 250 g/ha (Lolium perenne (LOLPE); post-emergence, 360 h, Rate 250 g/ha, post-emergence, visual assessment 15 DAA, 100%=total damage, 0%=no damage, read-out: Post-emergence herbicidal activity (percentage phytotoxicity) LOLPE POST): 90%; pest or weed control at 250 g/ha (Lolium perenne (LOLPE); pre-emergence, 480 h, Rate 250 g/ha, pre-emergence, visual assessment 20 DAA, 100%=total damage, 0%=no damage, read-out: Pre-emergence herbicidal activity (percentage phytotoxicity) LOLPE PRE): 90%
CC#Cc1cc(C)c(C2C(=O)CC(CC(=O)NC(C)(C)C)C2=O)c(C)c1 (stereo not drawn) [Compound A31]									pest or weed control at 250 g/ha ([1]; post-emergence, 360 h, Rate 250 g/ha, post-emergence, assessed visually 15 DAA, 100%=total damage, 0%=no damage, read-out: Post-emergence herbicidal activity (percentage phytotoxicity) ALOMY POST): 100%; pest or weed control at 250 g/ha ([1]; pre-emergence, 480 h, Rate 250 g/ha, pre-emergence, assessed visually 20 DAA, 100%=total damage, 0%=no damage, read-out: Pre-emergence herbicidal activity (percentage phytotoxicity) ALOMY PRE): 100%; pest or weed control at 250 g/ha (Avena fatua (AVEFA); post-emergence, 360 h, Rate 250 g/ha, post-emergence, assessed visually 15 DAA, 100%=total damage, 0%=no damage, read-out: Post-emergence herbicidal activity (percentage phytotoxicity) AVEFA POST): 100%; pest or weed control at 250 g/ha (Avena fatua (AVEFA); pre-emergence, 480 h, Rate 250 g/ha, pre-emergence, assessed visually 20 DAA, 100%=total damage, 0%=no damage, read-out: Pre-emergence herbicidal activity (percentage phytotoxicity) AVEFA PRE): 90%; pest or weed control at 250 g/ha ([2]; post-emergence, 360 h, Rate 250 g/ha, post-emergence, assessed visually 15 DAA, 100%=total damage, 0%=no damage, read-out: Post-emergence herbicidal activity (percentage phytotoxicity) ECHCG POST): 100%; pest or weed control at 250 g/ha ([2]; pre-emergence, 480 h, Rate 250 g/ha, pre-emergence, assessed visually 20 DAA, 100%=total damage, 0%=no damage, read-out: Pre-emergence herbicidal activity (percentage phytotoxicity) ECHCG PRE): 100%; pest or weed control at 250 g/ha (Lolium perenne (LOLPE); post-emergence, 360 h, Rate 250 g/ha, post-emergence, assessed visually 15 DAA, 100%=total damage, 0%=no damage, read-out: Post-emergence herbicidal activity (percentage phytotoxicity) LOLPE POST): 100%; pest or weed control at 250 g/ha (Lolium perenne (LOLPE); pre-emergence, 480 h, Rate 250 g/ha, pre-emergence, assessed visually 20 DAA, 100%=total damage, 0%=no damage, read-out: Pre-emergence herbicidal activity (percentage phytotoxicity) LOLPE PRE): 100%
